Patent publication US11419335B2, “N-arylated analogues and uses thereof” (University of Florida Research Foundation, Incorporated, priority 2016, dated 2022)
Where two headings read alike, the source gives them in different places. Marks after values point to notes of the source that are not given here.

Columns and labels:
[1] = tested on: methicillin-resistant Staphylococcus aureus MRSA-2 (clinical isolate); experiment: MIC broth microdilution, MRSA-2; assay type: cell-based
Method: (§1) The minimum inhibitory concentration (MIC) for each tested compound was determined by the broth microdilution method as recommended by the Clinical and Laboratory Standards Institute (CLSI). In a 96-well plate, eleven two-fold serial dilutions of each compound were made in a final volume of 100 μL Luria Broth. Each well was inoculated with ˜10^5 bacterial cells at the initial time of incubation, prepared from a fresh log phase culture (OD600 of 0.5 to 1.0 depending on bacterial strain). The MIC was defined as the lowest concentration of compound that prevented bacterial growth after incubating 16 to 18 hours at 37° C. (MIC values were supported by spectrophotometric readings at OD600). DMSO served as our vehicle and negative control in each microdilution MIC assay. DMSO was serially diluted with a top concentration of 1% v/v.
as §1, with “for each compound was” for “for each tested compound was”, “Standards Institute (CLSI).^6 In a” for “Standards Institute (CLSI). In a”, “concentration of test compound that” for “concentration of compound that”, “37° C. The concentration range tested for each compound during this study was 0.10 to 100 μM. DMSO served” for “37° C. (MIC values were supported by spectrophotometric readings at OD600). DMSO served”, “1% v/v. All MIC values were obtained from a minimum of three independent experiments.” for “1% v/v.”

MRSA BAA-1707 = experiment: MIC broth microdilution, MRSA BAA-1707; assay type: cell-based, Staphylococcus aureus
Method: as §1, with “The MIC was defined as the lowest concentration of compound that prevented bacterial growth after incubating 16 to 18 hours at 37° C.” left out
Each well was inoculated with ˜10^5 bacterial cells at the initial time of incubation, prepared from a fresh log phase culture (OD600 of 0.5 to 1.0 depending on bacterial strain). […] The concentration range tested for each compound during this study was 0.10 to 100 μM. DMSO served as our vehicle and negative control in each microdilution MIC assay. DMSO was serially diluted with a top concentration of 1% v/v. All MIC values were obtained from a minimum of three independent experiments.

[2] = tested on: methicillin-resistant Staphylococcus epidermidis (MRSE strain ATCC 35984); experiment: MIC broth microdilution, MRSE 35984; assay type: cell-based
Method: as §1
as §1, with “for each compound was” for “for each tested compound was”, “Standards Institute (CLSI).^6 In a” for “Standards Institute (CLSI). In a”, “concentration of test compound that” for “concentration of compound that”, “37° C. The concentration range tested for each compound during this study was 0.10 to 100 μM. DMSO served” for “37° C. (MIC values were supported by spectrophotometric readings at OD600). DMSO served”, “1% v/v. All MIC values were obtained from a minimum of three independent experiments.” for “1% v/v.”

[3] = tested on: vancomycin-resistant Enterococcus faecium (VRE strain ATCC 700221); experiment: MIC broth microdilution, VRE 700221; assay type: cell-based
Method: as §1
as §1, with “for each compound was” for “for each tested compound was”, “Standards Institute (CLSI).^6 In a” for “Standards Institute (CLSI). In a”, “concentration of test compound that” for “concentration of compound that”, “37° C. The concentration range tested for each compound during this study was 0.10 to 100 μM. DMSO served” for “37° C. (MIC values were supported by spectrophotometric readings at OD600). DMSO served”, “1% v/v. All MIC values were obtained from a minimum of three independent experiments.” for “1% v/v.”

[4] = tested on: Acinetobacter baumannii (ATCC 1794); experiment: MIC broth microdilution, A. baumannii 1794; assay type: cell-based
Method: as §1
as §1, with “for each compound was” for “for each tested compound was”, “Standards Institute (CLSI).^6 In a” for “Standards Institute (CLSI). In a”, “concentration of test compound that” for “concentration of compound that”, “37° C. The concentration range tested for each compound during this study was 0.10 to 100 μM. DMSO served” for “37° C. (MIC values were supported by spectrophotometric readings at OD600). DMSO served”, “1% v/v. All MIC values were obtained from a minimum of three independent experiments.” for “1% v/v.”

[5] = tested on: Pseudomonas aeruginosa (PAO1); experiment: MIC broth microdilution, PAO1; assay type: cell-based
Method: as §1
as §1, with “for each compound was” for “for each tested compound was”, “Standards Institute (CLSI).^6 In a” for “Standards Institute (CLSI). In a”, “concentration of test compound that” for “concentration of compound that”, “37° C. The concentration range tested for each compound during this study was 0.10 to 100 μM. DMSO served” for “37° C. (MIC values were supported by spectrophotometric readings at OD600). DMSO served”, “1% v/v. All MIC values were obtained from a minimum of three independent experiments.” for “1% v/v.”

[6] = tested on: Klebsiella pneumoniae (ATCC 13883); experiment: MIC broth microdilution, K. pneumoniae 13883; assay type: cell-based
Method: as §1
as §1, with “for each compound was” for “for each tested compound was”, “Standards Institute (CLSI).^6 In a” for “Standards Institute (CLSI). In a”, “concentration of test compound that” for “concentration of compound that”, “37° C. The concentration range tested for each compound during this study was 0.10 to 100 μM. DMSO served” for “37° C. (MIC values were supported by spectrophotometric readings at OD600). DMSO served”, “1% v/v. All MIC values were obtained from a minimum of three independent experiments.” for “1% v/v.”

[7] = tested on: Escherichia coli clinical isolate (UAEC-1); experiment: MIC broth microdilution, UAEC-1; assay type: cell-based
Method: as §1
as §1, with “for each compound was” for “for each tested compound was”, “Standards Institute (CLSI).^6 In a” for “Standards Institute (CLSI). In a”, “concentration of test compound that” for “concentration of compound that”, “37° C. The concentration range tested for each compound during this study was 0.10 to 100 μM. DMSO served” for “37° C. (MIC values were supported by spectrophotometric readings at OD600). DMSO served”, “1% v/v. All MIC values were obtained from a minimum of three independent experiments.” for “1% v/v.”

[8] = tested on: human red blood cells (hRBC); experiment: Hemolysis of red blood cells; assay type: cell-based
Method: The washing was repeated three times with the buffer. In a 96-well plate, test compounds were added to the buffer from DMSO stocks. […] The plate was then incubated for 1 hour at 37° C. After incubation, the plate was centrifuged for 5 minutes at 3,500 rpm. Then 80 μL of the supernatant was transferred to another 96-well plate and the optical density (OD) was read at 405 nm. DMSO served as our negative control (0% hemolysis) while Triton X served as our positive control (100% hemolysis). […] All reported data correspond to three independent experiments. Ten-point dose-response curves were generated in 96-well plates to determine 50% hemolysis (HC50 values) of red blood cells.
The washing was repeated three times with the buffer. In 96-well plate, the test compounds were added to the buffer. Then 50 μL of 2% of hRBCs in the buffer were added to the test plate to make the final concentrations ranging from 0.2 to 200 μM of each test compound. The plate was then incubated for 1 hour at 37° C. After incubation, the plate was centrifuged for 5 minutes at 3500 rpm and then 80 μL of the supernatant was transferred to another 96-well plate and the Optical Density (OD) was read at 405 nm. DMSO served as our negative control (0% haemolysis) and Triton X served as our positive control (100% haemolysis). The HC50 (concentration of test compound required to lyse red blood cells by 50%) was calculated by plotting the dose-response curve (not shown) with Graphpad Prism 6.0. All data were obtained from three independent haemolysis experiments.

MRSA BAA-1707 biofilms = experiment: Calgary Biofilm Device assay (MBC/MBEC), MRSA BAA-1707; assay type: cell-based, Staphylococcus aureus; settings: Table 2, CBD assay
Method: (§2) The lid of the Calgary device was then removed, washed and transferred to another 96-well plate containing 2-fold serial dilutions of the test compounds (the “challenge plate”). The total volume of media with compound in each well in the challenge plate is 150 μL. […] The lid was then removed from the challenge plate and MBC/MBEC values were determined using different final assays. […] The MBC values were determined as the concentration giving a lack of visible bacterial growth (i.e., turbidity). […] In select experiments, pegs from the Calgary device were removed from lead biofilm eradicators after final incubation, sonicated for 30 minutes in PBS and plated out to determine biofilm cell killing of lead biofilm-eradicating agents (i.e., colony forming unit per milliliter, CFU/mL).
(§3) Using a Calgary Biofilm Device, bacterial biofilms are established on pegs suspended to the bottom of a 96-well plate lid. Following biofilm establishment on lid pegs, lids are then transferred to new 96-well plates containing serial dilutions of test compound and allowed to incubate. After compound treatment, 96-well plate lids with pegs are once again transferred to 96-well plates containing fresh media. During this final phase of the assay, viable biofilms will grow and disperse planktonic cells into the media where they will grow and give a turbid well result. Conversely, wells that have no growth are a result of pegs that had eradicated bacterial biofilms. The lowest concentration at which no turbidity is observed is the minimum biofilm eradication concentration (MBEC). Using the Calgary Biofilm Device, both minimum biofilm eradication concentrations and minimum bactericidal concentrations (MBC) for planktonic bacterial can be determined using one assay from a single bacterial culture (FIG. 3A).

MRSE ATCC 35984 biofilms = experiment: Calgary Biofilm Device assay (MBC/MBEC), MRSE 35984; assay type: cell-based, Staphylococcus epidermidis; settings: Table 2, CBD assay
Method: as §2, §3

VRE ATCC 700221 biofilms = experiment: Calgary Biofilm Device assay (MBC/MBEC), VRE 700221; assay type: cell-based, Enterococcus faecium; settings: Table 2, CBD assay
Method: as §2, §3

MIC ([1]; MRSA-2 and MRSA BAA-1707, read-out: MIC against two MRSA strains): 6.25 µM
MIC ([1]; Table 1, read-out: MIC MRSA-2): 6.25 µM
MIC MRSA-2 ([1]; Table 4): 6.25 µM
MIC (MRSA BAA-1707; Table 1, read-out: MIC MRSA BAA-1707): 6.25 µM
MIC (MRSA BAA-1707; Table 2, read-out: MRSA BAA-1707 MIC): 6.25 µM
MIC MRSA 1707 (MRSA BAA-1707; Table 4): 6.25 µM
MIC ([2]; Table 1, read-out: MIC MRSE 35984): 3.13 µM
MIC ([2]; Table 2, read-out: MRSE 35984 MIC): 3.13 µM
MIC MRSE 35984 ([2]; Table 4): 3.13 µM
MIC ([3]; Table 1, read-out: MIC VRE 700221): 25 µM
MIC ([3]; Table 2, read-out: VRE 700221 MIC): 25 µM
MIC VRE 700221 ([3]; Table 4): 25 µM
MIC A. baumannii 1794 ([4]; Table 1): 75^a μM
MIC A. bau. 1794 ([4]; Table 4): 75a micromolar
MIC ([5]; Table 1): >100 µM
MIC PAO1 ([5]; Table 4): >100 µM
MIC K. pneumoniae 13883 ([6]; Table 1): 75^a μM
MIC K. pneu. 13883 ([6]; Table 4): 75a micromolar
MIC ([7]; Table 1): 50 µM
MIC UAEC-1 ([7]; Table 4): 50 µM
SMILES: CCCCCCCCCCCC[N+](C)(C)Cc1ccccc1.[Cl-] [BAC-12, reference compound]
HC50 [8]: > 100 µM
MRSA BAA-1707 MBEC (MRSA BAA-1707 biofilms; biofilm): > 1000 µM
MBC (MRSA BAA-1707 biofilms; planktonic cells): 15.6 µM
MRSE 35984 MBEC (MRSE ATCC 35984 biofilms; biofilm): > 2000 µM
MBC (MRSE ATCC 35984 biofilms; planktonic cells): 11.7 µM
VRE 700221 MBEC (VRE ATCC 700221 biofilms; biofilm): 23.5 µM
MBC (VRE ATCC 700221 biofilms; planktonic cells): 31.3 µM
